Target: human 5-HT2C(VSV) (Homo sapiens, UniProt P28335, I156V/I160V/N158S)
Test: cell-based

Chain of human 5-HT2C(VSV) (P28335 33-458 I156V/N158S/I160V limits assumed): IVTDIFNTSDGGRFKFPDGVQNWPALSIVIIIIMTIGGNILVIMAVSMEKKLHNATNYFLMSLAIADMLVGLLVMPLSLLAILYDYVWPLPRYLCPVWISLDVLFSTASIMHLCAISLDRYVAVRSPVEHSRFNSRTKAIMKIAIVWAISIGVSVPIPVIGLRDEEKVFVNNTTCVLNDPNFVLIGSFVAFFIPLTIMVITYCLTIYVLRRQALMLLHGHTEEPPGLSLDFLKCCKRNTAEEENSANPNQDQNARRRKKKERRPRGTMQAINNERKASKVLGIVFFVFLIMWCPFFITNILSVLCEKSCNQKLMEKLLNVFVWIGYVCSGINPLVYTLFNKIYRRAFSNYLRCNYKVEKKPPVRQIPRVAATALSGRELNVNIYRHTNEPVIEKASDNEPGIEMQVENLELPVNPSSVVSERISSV

Q: Which EC50 does the source give for CNCCc1cn(C)c2ccc(F)c(OCCc3ccc(Cl)cc3)c12 [33-29, 2-(4-(4-chlorophenethoxy)-5-fluoro-1-methyl-1H-indol-3-yl)-N-methylethanamine] here?
A: Its EC50 is 1 to 500 nM.

Q: With COc1ccc(F)c2c1c(CCN1CCCC1)cn2C [11-10, 7-fluoro-4-methoxy-1-methyl-3-(2-(pyrrolidin-1-yl)ethyl)-1H-indole] as the molecule, how does the EC50 read?
A: Its EC50 is 1 to 500 nM.

Q: How did the EC50 turn out when CCCn1cc(CCNC)c2c(OCc3ccc(C)cc3)c(F)ccc21 [33-16, 2-(5-fluoro-4-(4-methylbenzyloxy)-1-propyl-1H-indol-3-yl)-N-methylethanamine] was run?
A: Its EC50 is 1 to 500 nM.

Q: Which EC50 does the source give for CCOc1c(F)ccc2c1c(CCNCc1cccc(C(F)(F)F)c1)cn2C [30-22, 2-(4-ethoxy-5-fluoro-1-methyl-1H-indol-3-yl)-N-(3-(trifluoromethyl)benzyl)ethanamine] here?
A: Its EC50 is 1 to 500 nM.

Q: With CNCCc1cn(C)c2cc(F)cc(OCc3ccccc3Cl)c12 [33-44, 2-(4-(2-chlorobenzyloxy)-6-fluoro-1-methyl-1H-indol-3-yl)-N-methylethanamine] as the molecule, how does the EC50 read?
A: The EC50 was 1 to 500 nM.

Q: How did the EC50 turn out when CNCCc1cn(C)c2ccc(F)c(OCc3ccccc3OC(F)(F)F)c12 [33-34, 2-(5-fluoro-1-methyl-4-(2-(trifluoromethoxy)benzyloxy)-1H-indol-3-yl)-N-methylethanamine] was run?
A: The EC50 was 1 to 500 nM.

Q: With CCn1cc(CCN(C)C)c2c(OCc3ccc(C(F)(F)F)cc3)cc(F)cc21 [1-12b, 2-(1-ethyl-6-fluoro-4-(4-(trifluoromethyl)benzyloxy)-1H-indol-3-yl)-N,N-dimethylethanamine] as the molecule, how does the EC50 read?
A: Its EC50 is 500 to 10000 nM.

Q: Which EC50 does the source give for COc1c(F)ccc2c1c(CCN1CCN(c3cccc(Cl)c3)CC1)cn2C [17-15, 3-(2-(4-(3-chlorophenyl)piperazin-1-yl)ethyl)-5-fluoro-4-methoxy-1-methyl-1H-indole] here?
A: The EC50 was 1 to 500 nM.

Q: How did the EC50 turn out when CCn1cc(CCN(C)C)c2c(Oc3ccccc3N)ccc(F)c21 [2-3, 2-(3-(2-(dimethylamino)ethyl)-1-ethyl-7-fluoro-1H-indol-4-yloxy)aniline] was run?
A: Its EC50 is 1 to 500 nM.

Q: With CCCn1cc(CCNCc2cccc(C)n2)c2c(O)c(F)ccc21 [17-19, 5-fluoro-3-(2-(((6-methylpyridin-2-yl)methyl)amino)ethyl)-1-propyl-1H-indol-4-ol] as the molecule, how does the EC50 read?
A: Its EC50 is under 10000 nM.

Q: CCn1cc(CCNCc2ccccc2Cl)c2c(OC)ccc(F)c21 [20-10, N-(2-chlorobenzyl)-2-(1-ethyl-7-fluoro-4-methoxy-1H-indol-3-yl)ethanamine] was tested. Which EC50 did it give?
A: Its EC50 is 1 to 500 nM.

Q: For COc1ccc(-c2ccoc2)c2c1c(CCN(C)C)cn2C [6-9, 2-(7-(furan-3-yl)-4-methoxy-1-methyl-1H-indol-3-yl)-N,N-dimethylethanamine], which EC50 is on record?
A: Its EC50 is 500 to 10000 nM.

Q: Which EC50 does the source give for COc1cc(F)cc2c1c(CCN(C)C)cn2S(=O)(=O)c1ccccc1 [15-2, 2-(6-fluoro-4-methoxy-1-(phenylsulfonyl)-1H-indol-3-yl)-N,N-dimethylethan amine] here?
A: Its EC50 is 500 to 10000 nM.

Q: With COc1c(F)ccc2c1c(CCN1CCc3ccc(Cl)cc3C(C)C1)cn2C (centres unmarked) [17-8, 8-chloro-3-(2-(5-fluoro-4-methoxy-1-methyl-1H-indol-3-yl)ethyl)-1-methyl-2,3,4,5-tetrahydro-1H-benzo[d]azepine] as the molecule, how does the EC50 read?
A: Its EC50 is 1 to 500 nM.

Q: CNCCc1cn(C)c2c(F)cc(-c3ccccc3)c(OC)c12 [22-5, 2-(7-fluoro-4-methoxy-1-methyl-5-phenyl-1H-indol-3-yl)-N-methylethanamine] was tested. Which EC50 did it give?
A: The EC50 was 1 to 500 nM.

Q: CCn1cc(CCN(C)C)c2c(Oc3ccccc3[N+](=O)[O-])ccc(F)c21 [2-2, 2-(1-ethyl-7-fluoro-4-(2-nitrophenoxy)-1H-indol-3-yl)-N,N-dimethylethanamine] was tested. Which EC50 did it give?
A: Its EC50 is 500 to 10000 nM.

Q: How did the EC50 turn out when CN(CCc1cn(C)c2ccc(F)c(OCc3ccccc3C#N)c12)Cc1ccccc1C#N [35-2, 2-((3-(2-((2-cyanobenzyl)(methyl)amino)ethyl)-5-fluoro-1-methyl-1H-indol-4-yloxy)methyl)benzonitrile] was run?
A: The EC50 was 500 to 10000 nM.

Q: CCCn1cc(CCNC)c2c(OCc3cccc4ccccc34)c(F)ccc21 [33-39, 2-(5-fluoro-4-(naphthalen-1-ylmethoxy)-1-propyl-1H-indol-3-yl)-N-methylethanamine] was tested. Which EC50 did it give?
A: Its EC50 is 1 to 500 nM.

Q: CCn1cc(CCN2CCCC2)c2c(O)cc(F)cc21 [11-6, 1-ethyl-6-fluoro-3-(2-(pyrrolidin-1-yl)ethyl)-1H-indol-4-ol] was tested. Which EC50 did it give?
A: Its EC50 is 1 to 500 nM.

Q: Which EC50 does the source give for CCOc1c(F)ccc2c1c(CCNCCc1ccc3c(c1)OCO3)cn2C [30-26, 2-(benzo[d][1,3]dioxol-5-yl)-N-(2-(4-ethoxy-5-fluoro-1-methyl-1H-indol-3-yl)ethyl)ethanamine] here?
A: Its EC50 is 1 to 500 nM.

Q: With CNCCc1cn(C)c2ccc(F)c(OCc3ccc(F)cc3)c12 [33-35, 2-(5-fluoro-4-(4-fluorobenzyloxy)-1-methyl-1H-indol-3-yl)-N-methylethanamine] as the molecule, how does the EC50 read?
A: Its EC50 is 1 to 500 nM.

Q: With NCCc1cn(CC2CCCCO2)c2ccc(F)c(O)c12 (centres unmarked) [19-3, 3-(2-Aminoethyl)-5-fluoro-1-((tetrahydro-2H-pyran-2-yl)methyl)-1H-indol-4-ol] as the molecule, how does the EC50 read?
A: Its EC50 is 1 to 500 nM.

Q: For NCCc1cn(CC(N)=O)c2ccc(F)c(O)c12 [19-7, 2-(3-(2-aminoethyl)-5-fluoro-4-hydroxy-1H-indol-1-yl)acetamide], which EC50 is on record?
A: Its EC50 is under 10000 nM.

Q: With CCn1cc(C2=CCNCC2)c2c(OCc3ccccc3)cc(F)cc21 [37-2, 4-(benzyloxy)-1-ethyl-6-fluoro-3-(1,2,3,6-tetrahydropyridin-4-yl)-1H-indole] as the molecule, how does the EC50 read?
A: The EC50 was 500 to 10000 nM.

Q: For COc1c(F)ccc2c1c(CCN[C@H]1CCCc3ccccc31)cn2C [17-16, (S)-N-(2-(5-fluoro-4-methoxy-1-methyl-1H-indol-3-yl)ethyl)-1,2,3,4-tetrahydronaphthalen-1-amine], which EC50 is on record?
A: Its EC50 is 1 to 500 nM.

Q: For CCn1cc(CCNCCc2ccccc2)c2c(O)cc(F)cc21 [26-11, 1-ethyl-6-fluoro-3-(2-(phenethylamino)ethyl)-1H-indol-4-ol], which EC50 is on record?
A: The EC50 was 1 to 500 nM.

Q: For CNCCc1cn(C)c2ccc(F)c(OCC(O)c3ccccc3Cl)c12 (centres unmarked) [33-37, 1-(2-chlorophenyl)-2-(5-fluoro-1-methyl-3-(2-(methylamino)ethyl)-1H-indol-4-yloxy)ethanol], which EC50 is on record?
A: The EC50 was 1 to 500 nM.

Q: How did the EC50 turn out when CCOc1c(F)ccc2c1c(CCN1CCOCC1)cn2C [30-23, 4-(2-(4-ethoxy-5-fluoro-1-methyl-1H-indol-3-yl)ethyl)morpholine] was run?
A: Its EC50 is 500 to 10000 nM.

Q: For CN(C)CCc1cn(Cc2ccco2)c2c(F)ccc(OCc3ccccc3)c12 [24-1, 2-(4-(benzyloxy)-7-fluoro-1-(furan-2-ylmethyl)-1H-indol-3-yl)-N,N-dimethylethanamine], which EC50 is on record?
A: Its EC50 is 1 to 500 nM.

Q: For COc1c(F)ccc2c1c(CCN1CCN(c3ccccc3)CC1)cn2C [17-14, 5-fluoro-4-methoxy-1-methyl-3-(2-(4-phenylpiperazin-1-yl)ethyl)-1H-indole], which EC50 is on record?
A: The EC50 was 500 to 10000 nM.

Q: How did the EC50 turn out when CCn1cc(CCN(C)C)c2c(OCc3ccc(OC(F)(F)F)cc3)cc(F)cc21 [1-11b, 2-(1-ethyl-6-fluoro-4-(4-(trifluoromethoxy)benzyloxy)-1H-indol-3-yl)-N,N-dimethylethanamine] was run?
A: Its EC50 is 500 to 10000 nM.

Q: Which EC50 does the source give for CNCCc1cn(C)c2ccc(F)c(OC(C)c3ccccc3)c12 (centres unmarked) [33-32, 2-(5-fluoro-1-methyl-4-(1-phenylethoxy)-1H-indol-3-yl)-N-methylethanamine] here?
A: The EC50 was 1 to 500 nM.

Q: CCOc1c(F)ccc2c1c(CCN1CCCC1)cn2C [30-29, 4-ethoxy-5-fluoro-1-methyl-3-(2-(pyrrolidin-1-yl)ethyl)-1H-indole] was tested. Which EC50 did it give?
A: Its EC50 is 1 to 500 nM.

Q: How did the EC50 turn out when COC(=O)/C=C/c1ccc(OC)c2c(CCN(C)C)cn(C)c12 [25-2, (E)-methyl 3-(3-(2-(dimethylamino)ethyl)-4-methoxy-1-methyl-1H-indol-7-yl)acrylate] was run?
A: Its EC50 is 1 to 500 nM.

Q: How did the EC50 turn out when CCn1cc(CCN(C)C)c2c(OCc3cc(F)ccc3C)cc(F)cc21 [1-17b, 2-(1-ethyl-6-fluoro-4-(5-fluoro-2-methylbenzyloxy)-1H-indol-3-yl)-N,N-dimethylethanamine] was run?
A: The EC50 was 1 to 500 nM.

Q: How did the EC50 turn out when COc1ccc(C#CCO)c2c1c(CCN(C)C)cn2C [6-11, 3-(3-(2-(dimethylamino)ethyl)-4-methoxy-1-methyl-1H-indol-7-yl)prop-2-yn-1-ol] was run?
A: Its EC50 is 1 to 500 nM.

Q: For CCn1cc(CCN2Cc3ccccc3C2)c2c(OCc3ccccc3)cc(F)cc21 [31-3, 4-(benzyloxy)-1-ethyl-6-fluoro-3-(2-(isoindolin-2-yl)ethyl)-1H-indole], which EC50 is on record?
A: Its EC50 is 500 to 10000 nM.

Q: For CNCCc1cn(C)c2c(F)cc(CCc3ccccc3)c(OC)c12 [23-4, 2-(7-fluoro-4-methoxy-1-methyl-5-phenethyl-1H-indol-3-yl)-N-methylethanamine], which EC50 is on record?
A: Its EC50 is 500 to 10000 nM.

Q: For COc1c(F)ccc2c1c(CCN[C@@H]1CCCc3ccccc31)cn2C [17-17, (R)-N-(2-(5-fluoro-4-methoxy-1-methyl-1H-indol-3-yl)ethyl)-1,2,3,4-tetrahydronaphthalen-1-amine], which EC50 is on record?
A: Its EC50 is 1 to 500 nM.

Q: CNCCc1cn(C)c2ccc(F)c(OCc3cccc(Cl)c3)c12 [33-8, 2-(4-(3-chlorobenzyloxy)-5-fluoro-1-methyl-1H-indol-3-yl)-N-methylethanamine] was tested. Which EC50 did it give?
A: Its EC50 is 1 to 500 nM.

Q: For CCn1cc(CCN(C)C)c2c(OC)c(CCc3nc4ccccc4[nH]3)cc(F)c21 [29-4, 2-(5-(2-(1H-benzo[d]imidazol-2-yl)ethyl)-1-ethyl-7-fluoro-4-methoxy-1H-indol-3-yl)-N,N-dimethylethanamine], which EC50 is on record?
A: The EC50 was 1 to 500 nM.

Q: How did the EC50 turn out when CN(C)CCc1cn(Cc2ccccc2)c2c(F)ccc(O)c12 [7-3, 1-benzyl-3-(2-(dimethylamino)ethyl)-7-fluoro-1H-indol-4-ol] was run?
A: The EC50 was 500 to 10000 nM.

Q: Which EC50 does the source give for CCn1cc(CCN2CCCOCC2)c2c(O)cc(F)cc21 [11-12, 3-(2-(1,4-oxazepan-4-yl)ethyl)-1-ethyl-6-fluoro-1H-indol-4-ol] here?
A: The EC50 was 500 to 10000 nM.

Q: CCn1cc(CCNc2ccccc2)c2c(O)ccc(F)c21 [11-7, 1-ethyl-7-fluoro-3-(2-(phenylamino)ethyl)-1H-indol-4-ol] was tested. Which EC50 did it give?
A: The EC50 was 500 to 10000 nM.

Q: Which EC50 does the source give for CCn1cc(CCNCc2ccccc2)c2c(OC)ccc(F)c21 [20-4, N-benzyl-2-(1-ethyl-7-fluoro-4-methoxy-1H-indol-3-yl)ethanamine] here?
A: The EC50 was 1 to 500 nM.

Q: Which EC50 does the source give for COc1ccc(-c2ccco2)c2c1c(CCN(C)C)cn2C [6-8, 2-(7-(furan-2-yl)-4-methoxy-1-methyl-1H-indol-3-yl)-N,N-dimethylethanamine] here?
A: Its EC50 is 500 to 10000 nM.

Q: Which EC50 does the source give for CCn1cc(CCNCc2ccccc2)c2c(O)cc(F)cc21 [26-8, 3-(2-(benzylamino)ethyl)-1-ethyl-6-fluoro-1H-indol-4-ol] here?
A: The EC50 was 1 to 500 nM.

From patent US8912220B2 (priority 2009, dated 2014)
